Results from patent publication US8809341B2, “2,4-pyrimidinediamine compounds and uses as anti-proliferative agents” (Rigel Pharmaceuticals, Inc., priority 2003, dated 2014).
Like-named read-outs stand apart in the source and are kept apart here.

Tests used:
Type in all cases: cell-based
[1] = system: A549 cells; assay: in vitro antiproliferation assay, A549 (lung); conditions: A549 (lung) cells
Outline: (§1)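 IC50 values came from standard antiproliferation testing in cultured tumour cells; the A549 and H1299 lines are of lung origin.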

[2] = system: H1299 cells; assay: in vitro antiproliferation assay, H1299 (lung); conditions: H1299 (lung) cells
Outline: as §1

[3] = system: ACHN; assay: in vitro antiproliferation assay, ACHN (kidney/p53 wt)
Description: (§2) The IC50 values of various compounds against a various different tumor cell lines were determined using standard in vitro antiproliferation assays. The tumor cell lines tested were as follows: A549 (lung); H1299 (lung), ACHN (kidney/p53 wt), CAKI (renal cell carcinoma), NCI-H460 (lung); HCT116 (colon/p53w0; HELA (cervix/p53 wt), HUH7 (liver/p53 wt), HUVEC (primary endothelial), LNCAP (prostate), HT-29 (colon); MCF-7 (breast); MCF-7 (breast/ER positive), MDA MB435S (breast); MDA MB231 (breast/ER negative), DU145 (prostate); BxPC-3 (pancreatic); SKOV-3 (ovarian); HepG2 (hepatic), NDHF primary normal human dermal fibroblast), SKMEL28 (breast/p53mut), SKMEL5 (breast/p53 wt), U20S (bone) and PC3 (prostate). […] A blank indicates the specified compound was not tested against the specified cell line.
(§3) Many of the compounds were tested against other cell lines. Their activity is reported in TABLE 15, below, where +”, “−”, “−/+” or “+/−” values are as described for TABLES 1-14. Where the cell line includes a value in a parenthetical, the value indicates the seeding density at which the assay was performed

[4] = system: HCT116; assay: in vitro antiproliferation assay, HCT116 (colon); conditions: HCT116 (colon); read-out: HCT116
Description: as §2, §3

[5] = system: HELA; assay: in vitro antiproliferation assay, HELA (cervix/p53 wt)
Description: as §2, §3

[6] = system: MCF-7; assay: in vitro antiproliferation assay, MCF-7 (breast/ER positive)
Description: as §2, §3

[7] = system: MDA MB231; assay: in vitro antiproliferation assay, MDA MB231 (breast/ER negative)
Description: as §2, §3

[8] = system: SKMEL28; assay: in vitro antiproliferation assay, SKMEL28 (breast/p53mut)
Description: as §2, §3

[9] = system: SKMEL5; assay: in vitro antiproliferation assay, SKMEL5
Description: as §2, §3

[10] = system: U20S; assay: in vitro antiproliferation assay, U20S (bone)
Description: as §2, §3

[11] = system: CAKI; assay: in vitro antiproliferation assay, CAKI (renal cell carcinoma)
Description: as §2, §3

[12] = system: PC3; assay: in vitro antiproliferation assay, PC3 (prostate)
Description: as §2, §3

[13] = system: HUVEC; assay: in vitro antiproliferation assay, HUVEC (primary endothelial)
Description: as §2, §3

| SMILES | IC50 ([1]; antiproliferation) [µM] | IC50 ([2]; antiproliferation) [µM] | IC50 [12] [µM] | also measured |
| --- | --- | --- | --- | --- |
| COc1ccc(Nc2nc(Nc3cccc(-c4ncco4)c3)ncc2F)cc1OC [compound 858] | – | – | – | IC50 ([1]; in vitro antiproliferation): ≤ 20 µM; IC50 ([2]; in vitro antiproliferation): ≤ 20 µM; IC50 [3]: ≤ 20 µM; IC50 [4]: ≤ 20 µM; IC50 [5]: ≤ 20 µM; IC50 ([6]; MCF7, seeding density 2K, read-out: MCF7(2K)): ≤ 20 µM; IC50 ([6]; MCF7, seeding density 4K, read-out: MCF7(4K)): ≤ 20 µM; IC50 ([7]; MDA-MB-231, seeding density 2K, read-out: MDA-MB-231(2K)): ≤ 20 µM; IC50 ([7]; MDA-MB-231, seeding density 4K, read-out: MDA-MB-231(4K)): ≤ 20 µM; IC50 [8]: ≤ 20 µM; IC50 [9]: ≤ 20 µM; IC50 [10]: ≤ 20 µM |
| COc1ccc(N(C)c2nc(Nc3cccc(-c4ncco4)c3)ncc2F)cc1OC [compound 868] | – | – | – | IC50 ([1]; in vitro antiproliferation): ≤ 20 µM; IC50 ([2]; in vitro antiproliferation): ≤ 20 µM; IC50 [3]: ≤ 20 µM; IC50 [11]: ≤ 20 µM; IC50 [4]: ≤ 20 µM; IC50 [8]: ≤ 20 µM; IC50 [9]: ≤ 20 µM; IC50 [10]: ≤ 20 µM |
| COc1ccc(N(C)c2nc(Nc3ccc(-c4ncco4)cc3)ncc2F)cc1OC [compound 869] | – | – | – | IC50 ([1]; in vitro antiproliferation): ≤ 20 µM; IC50 ([2]; in vitro antiproliferation): ≤ 20 µM; IC50 [3]: ≤ 20 µM; IC50 [8]: ≤ 20 µM; IC50 [9]: ≤ 20 µM |
| COc1cc(Nc2nc(Nc3cccc(OCCO)c3)ncc2F)cc(OC)c1 [compound 940] | ≤ 20 | ≤ 20 | ≤ 20 | IC50 [4]: ≤ 20 µM |
| CCOC(=O)COc1cccc(Nc2ncc(F)c(Nc3cc(C)c(O)c(C)c3)n2)c1 [compound 947] | > 20 | ≤ 20 | ≤ 20 | – |
| Cc1cc(Nc2nc(Nc3cccc(OCCN4CCOCC4)c3)ncc2F)cc(C)c1O [compound 949] | ≤ 20 | ≤ 20 | ≤ 20 | IC50 [4]: ≤ 20 µM; IC50 [8]: ≤ 20 µM |
| CCOC(=O)COc1cccc(Nc2nc(Nc3cccc(C(C)(C)C)c3)ncc2F)c1 [compound 955] | > 20 | > 20 | > 20 | – |
| CCOC(=O)COc1cccc(Nc2ncc(F)c(Nc3cccc(C(C)(C)C)c3)n2)c1 [compound 958] | > 20 | > 20 | > 20 | – |
| CC(C)(C)c1cccc(Nc2nc(Nc3cccc(OCC(=O)O)c3)ncc2F)c1 [compound 962] | > 20 | > 20 | > 20 | – |
| Cc1cc(Nc2nc(Nc3cccc(OCC(=O)O)c3)ncc2F)cc(C)c1O [compound 979] | > 20 | ≤ 20 | > 20 | – |
| COC(=O)COc1cccc(Nc2ncc(F)c(Nc3cc(C)c(O)c(C)c3)n2)c1 [compound 982] | > 20 | – | > 20 | – |
| Cc1cc(Nc2nc(Nc3cccc(OCC(=O)N4CCNCC4)c3)ncc2F)cc(Cl)c1O [compound 983] | ≤ 20 | – | > 20 | – |
| Cc1cc(Nc2nc(Nc3cccc(OCCN4CCNCC4)c3)ncc2F)cc(Cl)c1O [compound 984] | ≤ 20 | – | ≤ 20 | IC50 [4]: ≤ 20 µM |
| COC(=O)COc1cccc(Nc2ncc(F)c(Nc3cc(C)c(OC)c(C)c3)n2)c1 [compound 985] | > 20 | – | > 20 | – |
| COc1c(C)cc(Nc2nc(Nc3cccc(OCC(=O)N4CCNCC4)c3)ncc2F)cc1C [compound 986] | > 20 | – | > 20 | – |
| COc1c(C)cc(Nc2nc(Nc3cccc(OCCN4CCNCC4)c3)ncc2F)cc1C [compound 987] | > 20 | – | ≤ 20 | – |
| CNC(=O)COc1cccc(Nc2ncc(F)c(Nc3ccc(Cl)c(Cl)c3)n2)c1 [compound 1006] | ≤ 20 | ≤ 20 | – | IC50 [13]: ≤ 20 µM |
| Cc1cc(C)cc(Nc2ncc(F)c(N(C)c3ccc(Cl)c(Cl)c3)n2)c1 [compound 1007] | > 20 | > 20 | – | IC50 [13]: > 20 µM |
| COc1cc(Nc2ncc(F)c(N(C)c3ccc(Cl)c(Cl)c3)n2)cc(OC)c1 [compound 1009] | > 20 | > 20 | – | IC50 [13]: ≤ 20 µM |
